# Where two headings read alike, the source gives them in different places.
# Columns and labels:
# ERK1/2 [1] = assay: ERK1/2 phosphorylation in INS-1E β-cells (Western blotting); type: cell-based, rat; settings: INS-1E cells, Tpl2 inhibitor 3 μM
# Experimental: (§1) Quantification of three to five experiments is shown.
# (§2) The rat β-cell line INS-1E was provided by Dr. Maechler (Department of Cell Physiology and Metabolism, Faculty of Medicine, University of Geneva, Geneva, Switzerland). Cells (passages 60-95) were maintained in culture as monolayer at 37° C. in humidified atmosphere with 5% CO2, using RPMI 1640 medium containing 11.1 mM glucose, and supplemented with 7.5% heat-inactivated FCS, 1 mM sodium pyruvate, 10 mM HEPES, 2 mM glutamine, 50 μM β-mercaptoethanol, 100 U/ml penicillin, and 100 μg/ml streptomycin. Experiments were performed in INS-1E cells at ˜70% confluence in 6-well plates.
# (§3) Tpl2 expression was specifically silenced in INS-1E cells using a validated set of 4 different 19-nucleotides siRNA duplexes (“ON-TARGETplus SMARTpool”, L-091828-01-0005) purchased from Dharmacon (ABgene Ltd, part of Thermo Fisher Scientific, Waltham, Mass.). […] Briefly, groups of 500,000 INS-1E cells were maintained in culture in the absence of penicillin and streptomycin for 24 h before being transfected with 40 nM siRNA-Lipofectamine™ 2000 complexes prepared in Opti-MEM medium at a 2:1 ratio. Medium was replaced 6 h after transfection with fresh antibiotic-free RPMI medium supplemented with 7.5% heat-inactivated FCS. […] The transfection efficiency was assessed using the “siGLO Green Transfection Indicator”. […]
# p90RSK [2] = assay: p90RSK phosphorylation in INS-1E β-cells (Western blotting); type: cell-based, rat; settings: INS-1E cells, Tpl2 inhibitor 3 μM
# Experimental: as §1, §2, §3
# ERK1/2 [3] = settings: islets from C57BL/6 mice; Tpl2 inhibitor 3 μM; cytokine mix 20 min
# Experimental: (§4) 2D and 3B: 72 h after the first 40 nM siRNA transfection, INS-1E cells were treated or not, as described above. Phosphorylation and total protein amount were analyzed by Western blotting as described above. […] Data are expressed as ratio of phosphorylated on total protein amount and as fold of phosphorylation over basal in cells without treatment.
# [4] = test system: p46/p54 c-Jun N-terminal kinases (JNK); settings: INS-1E cells
# Experimental: as §4
# p90RSK [5] = settings: islets from C57BL/6 mice; Tpl2 inhibitor 3 μM; cytokine mix 20 min
# Experimental: as §4
# p38 = p38 phosphorylation in INS-1E β-cells (Western blotting); type: cell-based, rat; settings: INS-1E cells
# Experimental: as §1
# Tpl2 expression was specifically silenced in INS-1E cells using a validated set of 4 different 19-nucleotides siRNA duplexes (“ON-TARGETplus SMARTpool”, L-091828-01-0005) purchased from Dharmacon (ABgene Ltd, part of Thermo Fisher Scientific, Waltham, Mass.). […] Briefly, groups of 500,000 INS-1E cells were maintained in culture in the absence of penicillin and streptomycin for 24 h before being transfected with 40 nM siRNA-Lipofectamine™ 2000 complexes prepared in Opti-MEM medium at a 2:1 ratio. Medium was replaced 6 h after transfection with fresh antibiotic-free RPMI medium supplemented with 7.5% heat-inactivated FCS. A second transfection was performed 24 h after the first one to improve the transfection efficiency. The transfection efficiency was assessed using the “siGLO Green Transfection Indicator”. All assays were performed at least 50 h after the first transfection.
# Proteins were visualized by enhanced chemiluminescence detection.
# human pancreatic islets = assay: Glucose-stimulated insulin secretion (stimulation index) of human islets exposed to cytokines; type: cell-based; settings: Tpl2 inhibitor 3 μM, cytokine mix 72 h, stimulation index 20 mM/2.8 mM glucose
# Experimental: Human islets were treated in RPMI medium containing 0.2% human albumin with or without Tpl2 inhibitor (3 μM) and/or Exendin-4 (20 nM) during 2 h and then stimulated or not with Tpl2 inhibitor (3 μM), Exendin-4 (20 nM) and/or a cytokine mixture (IL-1β (1000 U/ml), TNF-α (1000 U/ml) and IFN-γ (1000 U/ml) for 72 h, and then submitted to a glucose-response test in KRB buffer. The stimulation index is defined as the ratio of stimulated (20 mM glucose) to basal (2.8 mM glucose) insulin secretion. Each column represents the mean±SEM of 5 replicates (each replicate corresponds to islets from one human donor). *P<0.05, **P<0.01, and ***P<0.001 vs cytokine effect in control cells.
# INS-1E cells, mouse (5-10 islets per condition) or human islets (500-2000 IEQ per condition) were preincubated at 37° C. during 2 h with or without Tpl2 inhibitor (3 μM) and Exendin-4 (20 nM), and then incubated for different times (0, 8, 16, 24, 36, 48 or 72 h) with or without Tpl2-inhibitor (3 μM), IL-1β alone (10000 U/ml, 20 μg/ml), a cytokine mix (IL-1β (100 U/ml, 0.2 ng/ml), TNF-α (500 U/ml, 50 ng/ml), and IFN-γ (100 U/ml, 30 ng/ml) for INS-1E cells and mouse islets; and IL-1β (1000 U/ml, 2 ng/ml), TNF-α (1000 U/ml, 28 ng/ml) and IFN-γ (1000 U/ml, 833 ng/ml) for human islets), and/or Exendin-4 (20 nM). […]
# db/db mice = test system: db/db mice
# Experimental: FIG. 8: Effect of in vivo inhibition of Tpl2 on initial and body weights. Five-week-old db/db mice were obtained from Janvier Ltd and fed with a standard diet (4% fat) all over the study. All mice had free access to food and fresh water and were kept on a 12 h-day/12 h-night cycle. Body weights were recorded until the day of sacrifice prior to intraperitoneal (ip) administration of glucose, insulin or the daily injection of 2.5 mg/kg Tpl2 inhibitor or of the corresponding vehicle.
# FIG. 9: Effect of in vivo inhibition of Tpl2 on fasting glucose and plasma insulin levels. Five-week-old db/db mice were obtained from Janvier Ltd and fed with a standard diet (4% fat) all over the study. All mice had free access to food and fresh water and were kept on a 12 h-day/12 h-night cycle. Fast and blood glucose concentrations were determined with a (Verio Onetouch, Lifescan, Johnson and Johnson Company) glucometer using blood sampled from the tail vein on mice receiving daily injection of 2.5 mg/kg Tpl2 inhibitor or of the corresponding vehicle. Serum insulin levels were quantified by radioimmunoassay (RIA rat insulin kit, Millipore) using blood sampled from the tail vein on the first day of the study or jugular arteries the day of the sacrifice.
# (§5) FIG. 10: Effect of in vivo inhibition of Tpl2 on glucose tolerance and insulin tolerance. Five-week-old db/db mice were obtained from Janvier Ltd and fed with a standard diet (4% fat) all over the study. All mice had free access to food and fresh water and were kept on a 12 h-day/12 h-night cycle. Mice received daily injection of 2.5 mg/kg Tpl2 inhibitor or of the corresponding vehicle. Glucose tolerance tests were performed by ip administration of 1-2 g/kg glucose after a 16 h overnight fast and blood glucose concentrations were determined with a (Verio Onetouch, Lifescan, Johnson and Johnson Company) glucometer using blood sampled from the tail vein. Insulin tolerance tests were carried out in a similar manner following the ip administration of 0.75 U insulin per kg body weight to non-fasted mice.
# as §5, with “Five-week-old” for “FIG. 10: Effect of in vivo inhibition of Tpl2 on glucose tolerance and insulin tolerance. Five-week-old”, “Body weights were recorded until the day of sacrifice prior to intraperitoneal (ip) administration of glucose, insulin or the” for “Mice received”, “mice. Serum insulin levels were quantified by radioimmunoassay (RIA rat insulin kit, Millipore) using blood sampled from the tail vein on the first day of the study or jugular arteries the day of the sacrifice.” for “mice.”
# The progressive development of type 2 diabetes as observed in db/db mice is associated with increased body weight, insulin resistance, hyperglycemia and impaired glucose tolerance.
# ERK1/2 [6] = settings: human islets; Tpl2 inhibitor 3 μM 2 h; cytokine mix 20 min
# Experimental: Human islets were isolated, cultured 24-72 h for recovery in CMRL medium containing 10% SVF, treated with KRBH buffer with or without Tpl2 inhibitor (3 μM) during 2 h and then stimulated or not with a cytokine mix (IL-1β (100 U/ml), TNF-α (500 U/ml), and IFNγ(100 U/ml)) for 20 min. Lysates were subjected to western blot analysis with antibodies against phosphorylated ERK1/2 (1:1000) or β-actin (1:2000). […] Data are expressed as ratio of phosphorylated ERK2 on β-actin amount and as a fold increase over basal in islets without treatment. Data are expressed as the means±SEM. *P<0.05, vs stimulus effect in control cells.
# Human pancreases were harvested from five brain-dead non-obese non-diabetic donors in agreement with the French Agence de la Biomedecine and the local Institutional Ethical Committee. […]
# Human islets were isolated, cultured 24-72 h for recovery in CMRL medium containing 10% SVF, treated with KRBH buffer with or without Tpl2 inhibitor (3 μM) during 2 h and then stimulated or not with a cytokine mix (IL-1β (100 U/ml), TNF-α (500 U/ml), and IFNγ (100 U/ml)) for 20 min. […] Data are expressed as ratio of phosphorylated ERK2 on b-actin amount and as a fold increase over basal in islets without treatment. Data are expressed as the means±SEM. *P<0.05, vs stimulus effect in control cells.
# isolated mouse islets = settings: Tpl2 inhibitor 3 μM, cytokine mix 24 h
# Experimental: D: Isolated mouse islets were stimulated or not with a cytokine mix (IL-1β (1000 U/ml), TNF-α (1000 U/ml) and IFN-γ (1000 U/ml)) in RPMI medium for 24 h. The caspase-3/7 activity was measured using the “Caspase-Glo® 3/7 Assay”.
# Pancreatic islets were isolated from male 10- to 12-weeks-old C57BL/6 mice following the injection of approximately 2 ml of 1 mg/ml collagenase XI through the bile duct. The pancreases were then removed, incubated under agitation at 37° C. for 9 minutes to complete the digestion and the islets were separated from the exocrine pancreatic tissue using a Histopaque-1077 gradient. The islets were then washed in cold PBS supplemented with 1.2 mM CaCl2, 1 mM MgCl2, and 5.6 mM glucose, handpicked under microscope, separated in groups composed of 200-300 islets and maintained in culture at 37° C. (95% air and 5% CO2) in RPMI 1640 containing 11.1 mM glucose and supplemented with 10% FCS, 2 mM glutamine, 100 units/ml penicillin and 100 μg/ml streptomycin for at least 24 h before being used.
# INS-1E cells [7] = settings: Tpl2 inhibitor 5 μM, 24 h in conditioned medium of LPS-activated RAW264.7
# Experimental: RAW264.7 macrophages were maintained in DMEM containing 5% (vol/vol) heat-inactivated fetal bovine serum and antibiotics at 37° C. and 5% CO2/95% air atmosphere. RAW264.7 macrophages were incubated for 24 h with LPS (Lipopolysaccharide) (0.5 ng/ml), and the resulting conditioned medium was transferred onto INS-1E cells treated with or without Tpl2 inhibitor (5 μM). Lysates were subjected to Western blotting with antibodies against cleaved caspase-3 (1:1000), or HSP90 (1:1000). […] Data are expressed as ratio of cleaved caspase-3 on HSP90 protein amount, and as fold of cleaved caspase-3 over basal in cells in control culture medium without Tpl2 inhibitor treatment.
# [8] = test system: MEK, MK2, Src, protein kinase C, and EGF receptor; settings: cited from earlier work
# INS-1E cells [9] = assay: Apoptosis of INS-1E cells (cleaved caspase-3 and cleaved PARP, Western blotting)
# Experimental: FIG. 5: Apoptotic effects of inflammatory cytokines in INS-1E cells and in mouse pancreatic islets under Tpl2 inhibition. A and C: INS-1E β-cells were treated in RPMI medium containing BSA 0.5% (A) or 7.5% SVF (C) with or without Tpl2 inhibitor (3 μM) during 2 h and then stimulated or not with Tpl2 inhibitor (3 μM) and IL-1β alone (20 ng/ml) for 48 h (A) or the cytokine mixture (IL-1β (0.2 μg/ml), TNFα (50 ng/ml), and IFNγ (30 ng/ml) for 24 h (C). Lysates were subjected to Western blotting with antibodies against cleaved caspase-3 (1:1000), total and cleaved PARP (1:1000) or β-actin (1:5000). Quantification of four to ten independent experiments is shown. Data are expressed as ratio of cleaved caspase-3 or cleaved PARP on β-actin protein amounts, and as fold of these proteins over basal in cells without treatment. Data are presented as the means±SEM. *P<0.05, **P<0.01, and ***P<0.001 vs stimulus effect in control cells. B: INS-1E β-cells were stimulated or not in RPMI medium containing SVF 7.5% with each cytokine alone or a mixture of the three (IL-1β (0.2 ng/ml), TNFα (50 ng/ml), or IFNγ(30 ng/ml) for 24 h. Lysates were subjected to Western blotting with antibodies against cleaved caspase-3 (1:1000) or β-actin (1:5000). Dotted line represents 100% of caspase-3 amount from untreated control cells. Quantification of four independent experiments is shown. Data are expressed as a percentage of cleaved caspase-3 protein amount in untreated cells (caspase-3/β-actin protein amount ratio). Data are presented as the means±SEM. *P<0.05, **P<0.01, and ***P<0.001 vs untreated control cells.
# [10] = INS-1E cells, Tpl2 inhibitor 3 μM, IL-1β 20 ng/ml 48 h
# [11] = INS-1E cells, Tpl2 inhibitor 3 μM, cytokine mix 24 h
smiles,measurement,setting,value
"N#Cc1cnc2cnc(NCc3cccnc3)cc2c1Nc1ccc(F)c(Cl)c1 [Tpl2 inhibitor, 4-(3-Chloro-4-fluorophenylamino)-6-(pyridine-3-yl-methylamino)-3-cyano-[1,7]napthyridine]",suppression of IL-1β-induced ERK1/2 phosphorylation,"ERK1/2 [1]; 2 h, IL-1β 20 ng/ml 20 min",60%
same,suppression of cytokine-induced ERK1/2 phosphorylation,ERK1/2 [1]; cytokine mix IL-1β+TNF-α+IFN-γ 20 min,50-60%
same,inhibition of IL-1β-induced p90RSK phosphorylation,"p90RSK [2]; IL-1β 20 ng/ml 20 min, same extent as ERK1/2 (60%)",inhibited to the same extent
same,inhibition of cytokine-induced p90RSK phosphorylation,"p90RSK [2]; cytokine mix 20 min, same extent as ERK1/2 (50-60%)",inhibited to the same extent
same,inhibition of cytokine-stimulated ERK1/2 phosphorylation,ERK1/2 [3],efficient at inhibiting
same,effect on IL-1β-induced p46/p54 JNK phosphorylation,[4]; 3 μM,no effect
same,effect on IL-1β-induced p46/p54 JNK phosphorylation,[4]; 10 μM (data not shown),no effect
same,inhibition of cytokine-stimulated p90RSK phosphorylation,p90RSK [5],efficient at inhibiting
same,effect on IL-1β-induced p38 phosphorylation,p38; 3 μM,no effect
same,effect on IL-1β-induced p38 phosphorylation,p38; 10 μM (data not shown),no effect
same,prevention of cytokine-induced insulin secretion failure,human pancreatic islets,~50%
same,body weights vs vehicle-treated db/db mice,"db/db mice; 2.5 mg/kg daily ip, 2 weeks",not different
same,tolerance to glucose challenges,"db/db mice; 2.5 mg/kg daily ip, after 7 days",significantly improved
same,insulin sensitivity (insulin tolerance test),"db/db mice; 2.5 mg/kg daily ip, after 14 days",significant improvement
same,serum insulin level at fast,"db/db mice; 2.5 mg/kg daily ip, day 14, vehicle 11.3±1.2",4.3 ± 0.4 ng/mL
same,blood glucose concentration at fast,"db/db mice; 2.5 mg/kg daily ip, day 14, vehicle 258.6±40.7",144.0 ± 15.5 mg/dL
same,toxicity,"db/db mice; daily ip 2.5 mg/kg, 2 weeks",not toxic
same,inhibition of phosphorylation/activation of ERK1/2 induced by the cytokine mixture,ERK1/2 [6],significantly efficient at inhibiting
same,decrease of caspase-3/7 activity induced by the mixture of cytokines,isolated mouse islets,~50%
same,decrease of cleaved caspase-3 induced by macrophage conditioned medium,INS-1E cells [7],around 55%
same,inhibition or activation of other protein kinases,[8]; concentration <5 μM that prevents activation of the ERK1/2 cascade,No other protein kinase has been found to be inhibited or activated
same,"selectivity over other related kinases (MEK, MK2, Src, protein kinase C, EGF receptor)",[8]; concentrations below 5 μM,significant selectivity
same,decrease in cleaved PARP level induced by IL-1β,INS-1E cells [9]; [10],~30%
same,decrease in cleaved caspase-3 level induced by IL-1β,INS-1E cells [9]; [10],~45%
same,decrease in cleaved PARP level induced by the mixture of cytokines,INS-1E cells [9]; [11],~25%
same,decrease in cleaved caspase-3 level induced by the mixture of cytokines,INS-1E cells [9]; [11],~30%
same,INS-1E cell apoptosis with Tpl2 inhibitor alone,"INS-1E cells [9]; long term treatment, 3 μM, no cytokine",did not increase

# From US20150297573A1, “TPL2 KINASE INHIBITORS FOR PREVENTING OR TREATING DIABETES AND FOR PROMOTING Beta-CELL SURVIVAL” (INSERM (Institut National De La Santé Et De La Recherche …, priority 2012, published 2015)
